Measurements: ChEMBL document CHEMBL5321290, “Discovery of the Diphenyl 6-Oxo-1,6-dihydropyridazine-3-carboxylate/carboxamide Analogue J27 for the Treatment of Acute Lung Injury and Sepsis by Targeting JNK2 and Inhibiting the JNK2-NF-κB/MAPK Pathway” (J Med Chem, 2023)
Activity calls are given as the source filed them. The calls are words filed in the database; no cut-off is given here.

Tests used:
THP-1 [1] = test: Antiinflammatory activity against human THP-1 cells assessed as inhibition of LPS-stimulated TNFalpha release measured after 30 mins by ELISA; assay type: functional; settings: 0.5 h
J774.A1 [2] = test: Antiinflammatory activity against mouse J774A.1 cells assessed as inhibition of LPS-stimulated IL6 release measured at 10 uM after 30 mins by ELISA relative to control; assay type: functional; settings: J774.A1, 0.5 h
Mus musculus [3] = test: Antiinflammatory activity against LPS-induced acute lung injury C57 mouse model assessed as decrease in LPS-induced TNFalpha level in blood at 20 mg/kg, po thrice at 12 hrs interval; assay type: functional, organism-based
[4] = Subacute toxicity in ICR mouse assessed as pathological change in liver at 500 to 100 mg/kg, IG measured for 10 days by hematoxylin and eosin dye based light microscopy; assay type: organism-based; settings: in vivo, po, 240 h, dose 500-100 mg/kg, time 10 day
THP-1 [5] = test: Antiinflammatory activity against human THP-1 cells assessed as inhibition of LPS-stimulated TNFalpha mRNA expression pretreated for 2 hrs followed by stimulated with LPS by RT-qPCR analysis; assay type: functional, cell-based; settings: dose 2.5-10 µM
[6] = Cytotoxicity against mouse J774A.1 cells assessed as cell viability at 10 uM measured after 24 hrs incubation by MTT assay; assay type: toxicity, cell-based, J774.A1; settings: read-out: Activity
[7] = AUC (0 to t) in Sprague-Dawley rat at 10 mg/kg, iv measured upto 24 hrs by UPLC-MS/MS analysis; assay type: ADME, organism-based; design: dose 10 mg/kg, time < 24 hrs, route iv; settings: in vivo
[8] = molecular target: Mitogen-activated protein kinase 8 (Mus musculus) (UniProt Q91Y86); test: Binding affinity to JNK1 in protein lysate of LPS-stimulated mouse J774A.1 cells assessed as protein degradation in presence of pronase at 10 to 40 uM measured after overnight incubation by immunoblotting based drug affinity responsive target stability (DARTS) assay; assay type: subcellular; settings: J774.1, dose 10-40 µM
Chain of Mitogen-activated protein kinase 8 (Mus musculus) (Q91Y86 whole entry): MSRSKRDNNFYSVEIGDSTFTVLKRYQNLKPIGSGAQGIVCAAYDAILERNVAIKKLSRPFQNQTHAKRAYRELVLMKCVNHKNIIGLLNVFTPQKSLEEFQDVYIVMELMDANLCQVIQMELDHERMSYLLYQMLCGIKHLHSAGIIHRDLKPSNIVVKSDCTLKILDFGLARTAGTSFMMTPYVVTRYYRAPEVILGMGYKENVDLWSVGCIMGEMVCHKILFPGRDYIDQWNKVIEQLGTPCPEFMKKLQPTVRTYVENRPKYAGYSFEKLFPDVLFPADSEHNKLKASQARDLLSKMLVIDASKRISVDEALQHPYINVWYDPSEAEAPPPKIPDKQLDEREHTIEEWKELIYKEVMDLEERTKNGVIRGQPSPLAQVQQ

[9] = Subacute toxicity in ICR mouse assessed as pathological change in heart at 500 to 100 mg/kg, IG measured for 10 days by hematoxylin and eosin dye based light microscopy; assay type: organism-based; settings: in vivo, po, 240 h, dose 500-100 mg/kg, time 10 day
[10] = molecular target: Mitogen-activated protein kinase 9 (Homo sapiens, UniProt P45984); test: Inhibition of JNK2 (unknown origin) assessed as inhibition rate at 10 uM by SPR analysis relative to control
Chain of Mitogen-activated protein kinase 9 (P45984 whole entry, looked up): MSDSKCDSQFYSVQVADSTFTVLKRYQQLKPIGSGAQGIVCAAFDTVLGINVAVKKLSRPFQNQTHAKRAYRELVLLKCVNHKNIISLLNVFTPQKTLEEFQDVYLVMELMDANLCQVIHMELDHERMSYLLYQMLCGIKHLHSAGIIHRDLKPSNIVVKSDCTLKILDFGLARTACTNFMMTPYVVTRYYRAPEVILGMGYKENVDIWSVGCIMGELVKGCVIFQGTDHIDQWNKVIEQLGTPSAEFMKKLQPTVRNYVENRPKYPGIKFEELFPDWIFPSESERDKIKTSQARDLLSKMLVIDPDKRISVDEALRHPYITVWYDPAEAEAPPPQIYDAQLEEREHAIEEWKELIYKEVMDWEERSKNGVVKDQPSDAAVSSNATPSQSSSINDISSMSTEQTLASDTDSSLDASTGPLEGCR

Mus musculus [11] = test: Antiinflammatory activity against LPS-induced acute lung injury C57 mouse model assessed as decrease in LPS-induced IL-6 level in serum at 20 to 40 mg/kg, po thrice at 12 hrs interval followed 30 mins treated with LPS by ELISA; assay type: functional, organism-based; settings: dose 20-40 mg/kg, time 36.5 hrs
[12] = molecular target: Transcription factor p65 (Mus musculus) (UniProt Q04207); test: Inhibition of P65 entry into nucleus in mouse J774A.1 cells assessed as density quantification pretreated at 10 uM for 2 hrs followed by induced with LPS for 30 mins by immunofluorescence analysis; assay type: cell-based; settings: J774.1, time 2.5 hrs
Chain of Transcription factor p65 (Mus musculus) (Q04207 whole entry): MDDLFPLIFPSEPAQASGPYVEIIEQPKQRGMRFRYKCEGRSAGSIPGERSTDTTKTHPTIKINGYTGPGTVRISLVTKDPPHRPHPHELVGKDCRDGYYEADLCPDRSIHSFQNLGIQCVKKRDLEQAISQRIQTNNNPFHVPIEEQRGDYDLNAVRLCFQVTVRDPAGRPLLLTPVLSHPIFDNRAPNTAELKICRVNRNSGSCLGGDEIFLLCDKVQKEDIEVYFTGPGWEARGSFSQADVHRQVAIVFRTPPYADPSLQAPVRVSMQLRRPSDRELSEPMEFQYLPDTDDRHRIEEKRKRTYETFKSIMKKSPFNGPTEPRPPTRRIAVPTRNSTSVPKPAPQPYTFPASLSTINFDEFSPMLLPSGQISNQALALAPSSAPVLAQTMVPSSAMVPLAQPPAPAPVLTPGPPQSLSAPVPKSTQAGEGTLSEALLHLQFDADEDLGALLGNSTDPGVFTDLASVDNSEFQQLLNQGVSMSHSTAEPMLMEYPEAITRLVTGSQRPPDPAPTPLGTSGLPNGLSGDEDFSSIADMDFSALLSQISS

J774.A1 [13] = test: Antiinflammatory activity against mouse J774A.1 cells assessed as inhibition of LPS-stimulated IL6 release measured after 30 mins by ELISA; assay type: functional, cell-based; settings: J774.A1, 0.5 h
[14] = Half life in Sprague-Dawley rat at 10 mg/kg, po measured upto 24 hrs by UPLC-MS/MS analysis; assay type: ADME, organism-based; settings: in vivo
[15] = Cmax in Sprague-Dawley rat at 10 mg/kg, iv measured upto 24 hrs by UPLC-MS/MS analysis; assay type: ADME, organism-based; design: dose 10 mg/kg, time < 24 hrs, route iv; settings: in vivo
[16] = molecular target: T1, Mitogen-activated protein kinase kinase kinase 7 (Mus musculus) (UniProt Q62073); test: Inhibition of TAK1 phosphorylation in mouse J774A.1 cells pretreated at 10 uM for 2 hrs followed by induced with LPS for 30 mins by Western blot analysis; assay type: cell-based; settings: J774.1, time 2.5 hrs
T1 sequence (whole entry): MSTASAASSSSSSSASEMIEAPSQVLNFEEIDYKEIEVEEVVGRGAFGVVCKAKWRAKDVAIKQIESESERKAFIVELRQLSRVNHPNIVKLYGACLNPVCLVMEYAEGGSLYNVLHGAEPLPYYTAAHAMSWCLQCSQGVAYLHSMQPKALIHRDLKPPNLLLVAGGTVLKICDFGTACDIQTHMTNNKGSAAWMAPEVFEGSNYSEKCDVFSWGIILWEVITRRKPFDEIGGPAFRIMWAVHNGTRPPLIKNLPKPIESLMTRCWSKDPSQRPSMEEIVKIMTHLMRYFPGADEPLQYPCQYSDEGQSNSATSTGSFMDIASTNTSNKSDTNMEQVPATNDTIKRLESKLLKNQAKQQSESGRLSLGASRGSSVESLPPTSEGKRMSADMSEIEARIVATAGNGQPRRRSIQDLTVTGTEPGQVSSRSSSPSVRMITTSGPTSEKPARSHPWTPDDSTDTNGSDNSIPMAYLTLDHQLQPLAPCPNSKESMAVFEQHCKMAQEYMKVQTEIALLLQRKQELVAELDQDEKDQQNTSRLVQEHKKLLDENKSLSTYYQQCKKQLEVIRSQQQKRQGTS

Mus musculus [17] = test: Antiinflammatory activity against LPS-induced acute lung injury C57 mouse model assessed as decrease in LPS-induced IL-6 level in alveolar lavage fluid at 20 mg/kg, po thrice at 12 hrs interval; assay type: functional, organism-based; settings: Bronchoalveolar lavage
Mus musculus [18] = test: Antiinflammatory activity against LPS-induced acute lung injury C57 mouse model assessed as reduction in LPS-induced neutrophil numbers in alveolar lavage fluid at 20 to 40 mg/kg, po thrice at 12 hrs interval followed 30 mins treated with LPS; assay type: functional, organism-based; settings: dose 20-40 mg/kg, time 36.5 hrs
[19] = molecular target: Transcription factor p65 (Mus musculus) (UniProt Q04207); test: Inhibition of P65 phosphorylation in mouse J774A.1 cells pretreated at 10 uM for 2 hrs followed by induced with LPS for 30 mins by Western blot analysis; assay type: cell-based; settings: J774.1, time 2.5 hrs
[20] = Subacute toxicity in ICR mouse assessed as change in body weight at 500 to 100 mg/kg, IG measured for 10 days; assay type: organism-based; settings: in vivo, po, 240 h, dose 500-100 mg/kg, time 10 day
Mus musculus [21] = test: Antiinflammatory activity against LPS-induced acute lung injury C57 mouse model assessed as increase in IkappaBalpha level in lung tissue at 40 mg/kg, po thrice at 12 hrs interval followed 30 mins treated with LPS by Western blot analysis; assay type: functional, organism-based; settings: time 36.5 hrs
[22] = Oral bioavailability n Sprague-Dawley rat at 10 mg/kg measured upto 24 hrs by UPLC-MS/MS analysis; assay type: ADME, organism-based; settings: in vivo
THP-1 [23] = test: Antiinflammatory activity against human THP-1 cells assessed as inhibition of LPS-stimulated IL6 release measured after 30 mins by ELISA; assay type: functional, cell-based; settings: THP-1, 0.5 h
Mus musculus [24] = test: Antiinflammatory activity against LPS-induced septic shock mouse model assessed as improvement in LPS-induced weight loss at 20 mg/kg, po pretreated 1 hr before LPS administration measured upto 120 hrs; assay type: functional, organism-based; settings: time <= 121.0 hrs
Mus musculus [25] = test: Antiinflammatory activity against LPS-induced acute lung injury C57 mouse model assessed as decrease in LPS-induced IL-6 level in blood at 20 mg/kg, po thrice at 12 hrs interval; assay type: functional, organism-based

With COc1cc2nccc(Oc3ccc(NC(=O)c4nn(-c5ccc(C)cc5)c(=O)cc4C)cc3)c2cc1OC the IC50 (THP-1 [1]) was 1760 nM, the inhibition at 10 µM (J774.A1 [2]) was 71.5% and the Activity (Mus musculus [3]) was “Active”. For the same molecule, the Activity [4] was “Non-Toxic”, the Activity (THP-1 [5]) was “Dose-Dependent Effect” and the viability at 24 h, 10 µM [6] was over 80%. For the same molecule, the AUCt [7] was 2995.673 ng·h/mL, the Activity [8] was “inactive” and the Activity [9] was “Non-Toxic”. The inhibition [10] was 64.8%, the Activity (Mus musculus [11]) was “Active” and the inhibition [12] was “Active”. It also gave an IC50 (J774.A1 [13]) of 7110 nM, a half-life [14] of 1.16 h and a Cmax [15] of 1460 ng/mL. The inhibition [16] was “Active”, the Activity (Mus musculus [17]) was “Active” and the Activity (Mus musculus [18]) was “Active”. For the same molecule, the inhibition [19] was “Active”, the Activity [20] was “Non-Toxic” and the Activity (Mus musculus [21]) was “Active”. For the same molecule, the F [22] was 30.74%, the IC50 (THP-1 [23]) was 220 nM and the Activity (Mus musculus [24]) was “Active”. The Activity (Mus musculus [25]) was “Active”.
